# Literature values as cited in patent US20240065975A1, “OTF COMPOUND CONNECTED BY SEWING” (LTS LOHMANN THERAPIE-SYSTEME AG, priority 2021, published 2024).
# Settings: compared with (R)-ketamine
smiles,measurement,value
"CNC1(c2ccccc2Cl)CCCCC1=O (racemic) [(S)-ketamine, (S)-(±)-2-(2-chlorophenyl)-2-(methylamino)cyclohexan-1-one]",analgesic and anaesthetic potency relative to the (R) form,approximately three times higher
